Laboratory results published in US11052091B2, “BRK inhibitory compound” (ONO PHARMACEUTICAL CO., LTD., priority 2016, dated 2021).

Key:
Brk enzyme = Brk enzyme (Homo sapiens (Human), UniProt Q13882); experiment: Measurement of Brk inhibitory activity (LanthaScreen TR-FRET); details: read-out: Brk inhibitory activity (IC50)
Protocol: Measurement of an inhibitory activity on Brk enzyme was performed by using LanthaScreen (registered trademark) system (Invitrogen) in accordance with the attached manual. Reagents used are described below.
Reaction Buffer: A solution containing 50 mmol/L HEPES (pH 7.5), 0.01% Brij 35, 10 mmol/L MgCl2 and 1 mmol/L EGTA was prepared by using purified water.
A solution of a test substance (the compound of the present invention): A solution of each concentration of a test compound in DMSO was diluted 20-fold with Reaction Buffer, and a solution containing a test compound at a concentration 5 times a final concentration was prepared. An enzyme solution: A solution containing 480 ng/mL of Brk enzyme was prepared by using Reaction Buffer. […] A detection solution: A solution containing 20 mmol/L of EDTA and 4 nmol/L of PY20 (Invitrogen) was prepared by using Dilution B (Invitrogen).
To a 96-well plate (Nunc), a solution of 10 mmol/L of a test compound in DMSO was dispensed, and further, a dilution series at a common ratio of three was prepared by using DMSO. […] The phosphorylation of the artificial substrate was quantified by Time-Resolved Fluorescence Resonance Energy Transfer (TR-FRET). […]

p38α = p38α (Homo sapiens (Human), UniProt Q16539); experiment: Enzyme inhibitory activity on kinases other than Brk (selectivity), p38α; assay type: biochemical; details: compound concentration of 1 μmol/L; read-out: inhibition rates (%) p38α
Chain of p38α (Q16539 whole entry): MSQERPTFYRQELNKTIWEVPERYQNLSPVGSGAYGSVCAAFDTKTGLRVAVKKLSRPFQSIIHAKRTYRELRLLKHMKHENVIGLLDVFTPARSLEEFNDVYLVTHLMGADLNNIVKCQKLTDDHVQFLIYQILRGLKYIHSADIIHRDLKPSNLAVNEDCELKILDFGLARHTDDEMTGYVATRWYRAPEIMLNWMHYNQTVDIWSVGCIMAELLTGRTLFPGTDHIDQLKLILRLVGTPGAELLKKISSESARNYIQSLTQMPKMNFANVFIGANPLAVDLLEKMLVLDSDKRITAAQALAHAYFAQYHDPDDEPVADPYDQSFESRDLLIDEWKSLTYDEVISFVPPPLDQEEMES
Protocol: The compound of the present invention was dissolved in DMSO to prepare a solution with a concentration of 100 times the test concentration of 1 μmol/L. The solution was further diluted 25-fold with Assay Buffer (20 mmol/L HEPES, 0.01% Triton X-100, 2 mmol/L DTT, pH 7.5) to give a test substance solution. With regard to a positive control substance, a solution of the positive control substance was prepared in a similar manner.
Five microliters of a test substance solution with a concentration of four times prepared by using Assay Buffer, 5 μL of a solution of a substrate/ATP/a metal (Mg) with a concentration of four times and 10 μL of a solution of kinase with a concentration of two times were mixed in a well of a 384-well plate made of polypropylene, and the mixture was subjected to a reaction at room temperature for 1 hour. To the mixture, 60 μL of Termination Buffer (QuickScout Screening Assist MSA; Cama Biosciences, Inc.) was added to stop the reaction. The substrate peptide and the phosphorylated peptide in the reaction solution were separated, and were quantified. The kinase reaction was evaluated by a product ratio (P/(P+S)) calculated from a peak height (S) of the substrate peptide and a peak height (P) of the phosphorylated peptide. As other kinases, kinase selectivity experiments were performed using, for example, the p38α and Syk kinases. […]

Chain of Brk enzyme (Q13882 whole entry): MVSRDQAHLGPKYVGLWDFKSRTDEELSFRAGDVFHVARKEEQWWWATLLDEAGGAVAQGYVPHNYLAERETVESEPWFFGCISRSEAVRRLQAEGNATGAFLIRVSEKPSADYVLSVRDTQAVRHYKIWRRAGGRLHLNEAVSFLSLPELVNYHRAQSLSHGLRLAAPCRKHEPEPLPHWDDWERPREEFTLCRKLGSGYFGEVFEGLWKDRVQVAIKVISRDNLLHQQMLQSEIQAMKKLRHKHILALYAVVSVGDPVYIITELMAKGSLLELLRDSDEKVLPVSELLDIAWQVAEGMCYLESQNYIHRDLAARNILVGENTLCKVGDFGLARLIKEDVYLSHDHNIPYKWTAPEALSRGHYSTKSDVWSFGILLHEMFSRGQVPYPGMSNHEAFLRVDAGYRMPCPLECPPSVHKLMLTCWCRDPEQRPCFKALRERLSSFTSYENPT

Compound	IC50 (Brk enzyme) [nM]	inhibition at 1 µM (p38α) [%]
6-amino-2-{[2-difluoro-4-(methylsulfonyl)phenyl]amino}-7-(7-fluoro-1H-indazol-4-yl)-9-isopropyl-7,9-dihydro-8H-purin-8-one [Example 5-11]	22	–
CC(C)n1c(=O)n(-c2ccc(F)c3[nH]ncc23)c2c(N)nc(Nc3ccc(S(C)(=O)=O)cc3F)nc21 [Example 3, 6-amino-7-(7-fluoro-1H-indazol-4-yl)-2-{[2-fluoro-4-(methylsulfonyl)phenyl]amino}-9-isopropyl-7,9-dihydro-8H-purin-8-one]	–	≤ 24
